Legend:
pMEK1/2 in A375 cells = assay: A375 pMEK1/2 Meso Scale Assay; assay type: cell-based; settings: Homo sapiens, A-375, 2 h; A375 pMEK1/2, about two hours incubation
Procedure: On the afternoon of Day 1, cells are plated in a 96-well flat bottom cell culture plate at about 50,000 cells/well in a volume of 100 μl. On the morning of Day 2, serial dilutions of test compound(s) are added to the plate. The plate is incubated for about two hours at 37° C., […]. The plate is blocked about five minutes before the compound incubation step is completed by adding 150 μl/well of MSD (Meso Scale Discovery) blocking solution-A (prepared with 20 ml 1× Tris wash buffer (25 ml of 10× Tris buffer+225 ml deionized water) and 600 mg MSD blocker A) and incubating with vigorous shaking at room temperature for one hour. The plate is washed 4× with 1× Tris wash buffer.
Cells are harvested and lysates prepared by removing medium, washing 1× with ice-cold PBS (calcium and magnesium free), adding 50 μl/well Complete Tris buffer and incubating with shaking at 4° C. for one hour. Lysate samples (25 μl) are added to an MSD Multi-Spot plate and incubated with vigorous shaking at room temperature for two hours. The plate is washed 1× with Tris wash buffer.
25 μl/well of […] detection antibody (Anti-pMEK1/2 antibody; SULFO-TAG labeled, light sensitive) in 3 ml of cold antibody dilution buffer (1 ml blocking solution-A, 1.82 ml 1× Tris wash buffer, 150 μl 2% MSD blocker D-M and 30 μl 10% MSD blocker D-R) is added and the plate is incubated with vigorous shaking at room temperature in the dark for one hour. The plate is washed 1× with Tris wash buffer.
150 μl/well of 1× MSD Read buffer T (with surfactant) is added to the plate and the plate is read using a MSD Sector instrument.

A375 cells = assay: Alamar Blue Viability Assay; assay type: cell-based; settings: Homo sapiens, A-375, 72 h, 3 days
Procedure: A375 cells (ATCC # CRL-1619; Passage 4˜15; doubling time is roughly 18 hours) are used. Culture medium is DMEM (high glucose, with L-glutamine)+10% FBS+Pen/Strep. Cells are passed every three days at 1:20.
200 μl of medium only is added into all wells along the edges of a 96-well flat bottom plate and 180 μl of cell suspension (containing 1,000 cells) per well is added into the plate with a Low Evaporation Lid (Costar Cat # 3595). The cells are cultured overnight. Compounds and controls are diluted according to standard compound dilution protocol described below. From 30 mM stock solution, 10 mM, 3 mM, 1 mM, and 0.3 mM solutions in 100% DMSO are prepared using the following serial dilution protocol:
The 30, 10, 3, 1 and 0.3 mM solutions are diluted 1:50 (DMSO:medium) by adding 4 μl of each to 196 μl of culture medium. This yields 600 μM, 200 μM, 60 μM, 20 μM, and 6 μM secondary stock solutions. 4 μl of DMSO are added to 196 μl medium for the DMSO control as well. 20 μl of compound dilutions, including the DMSO control locations (Row G, Columns 2-10 are DMSO control wells), are added in triplicate to the cells in the 96-well plate using a repeat pipettor (see plate layout below). This yields final concentrations of 60 μM, 20 μM, 6 μM, 2 μM, and 0.6 μM containing 0.2% DMSO in each well. The plate is gently tapped to evenly distribute compound within the well. The plate is incubated at 5% CO2 at 37° C. for 3 days.
20 μl of Alamar Blue (Biosource #DAL-1100) is added to each well. The plate is incubated in 5% CO2 incubator for 4 hours. Fluorescence is measured with excitation wavelength at 530 nm and emission wavelength at 590 nm using a Victor 2 multilabel plate reader (Perkin Elmer). Data is saved with plate format as a Text file and entered into ActivityBase (Cell-based SAR; Prolif-Alamar; MTT 5 plates unfixed fit) to calculate the percent of DMSO values for each compound set of triplicate wells and IC50 curves are plotted.

V600E mutant B-RAF = target: T1, V600E mutant B-RAF (Homo sapiens, UniProt P15056, V600E); assay: V600E Mutant B-RAF 33P Assay; assay type: biochemical
T1 construct: purchased Upstate
Procedure: Substrate (HIS-MEK1 K97M) is prepared by Celgene Corp. as described above.
Test compound is diluted in 100% DMSO (600 μM). […] Substrate mixture is prepared as 7.5 μM HIS-MEK1 K97M in assay buffer. ATP mixture is prepared as 300 μM ATP, 75 mM MgCl2, 0.05 μCi/μl ^33P ATP in assay buffer.
In a 96 well assay plate (Falcon Polylpropylene well U-bottom), the following are added to each well: 2.5 μl of test compound solution (serial dilutions), 20 μl of substrate mixture and 17.5 μl of enzyme mixture. The plate is incubated for at least 15 minutes. 10 μl of ATP mixture is added and the plate is incubated at room temperature for about 60 minutes. 80 μl of 12.5% TCA is added to each well, and the plate is incubated for at least 20 minutes. The contents of the plate is transferred to a glass fiber filter plate (Millipore) using a Packard Harvester (washing 10× with 1×PBS). 50 μl of Scintillation-20 fluid is added to each well. The plate is read using a Packard TopCount.

T1 sequence (P15056 whole entry V600E): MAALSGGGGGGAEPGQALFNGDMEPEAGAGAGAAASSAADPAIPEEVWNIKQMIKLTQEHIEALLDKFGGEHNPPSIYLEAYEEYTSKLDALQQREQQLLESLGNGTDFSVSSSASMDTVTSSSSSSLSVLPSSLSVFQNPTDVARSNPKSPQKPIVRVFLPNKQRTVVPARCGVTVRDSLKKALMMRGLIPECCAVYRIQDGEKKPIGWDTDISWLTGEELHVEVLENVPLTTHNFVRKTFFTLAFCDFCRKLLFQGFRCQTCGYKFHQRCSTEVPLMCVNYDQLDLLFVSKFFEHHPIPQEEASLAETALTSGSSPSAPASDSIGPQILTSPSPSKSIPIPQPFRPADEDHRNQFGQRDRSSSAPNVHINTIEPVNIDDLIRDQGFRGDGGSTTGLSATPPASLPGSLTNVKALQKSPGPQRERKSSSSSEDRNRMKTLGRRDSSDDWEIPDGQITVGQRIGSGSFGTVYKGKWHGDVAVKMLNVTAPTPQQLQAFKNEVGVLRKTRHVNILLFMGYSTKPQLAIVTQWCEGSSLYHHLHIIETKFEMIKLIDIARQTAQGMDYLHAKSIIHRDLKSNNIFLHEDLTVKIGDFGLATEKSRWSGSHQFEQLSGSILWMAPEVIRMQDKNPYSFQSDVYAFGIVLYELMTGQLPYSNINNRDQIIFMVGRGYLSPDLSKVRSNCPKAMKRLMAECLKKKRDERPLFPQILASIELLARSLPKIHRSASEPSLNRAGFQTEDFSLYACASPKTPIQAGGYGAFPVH

Row | Compound | melting point | IC50 (pMEK1/2 in A375 cells) | IC50 (A375 cells) | IC50 (V600E mutant B-RAF)
1 | NC(=O)c1sc2ncnc(-c3cccc(NC(=O)Nc4ccccc4C(F)(F)F)c3)c2c1N [Example 5.2.170, 5-amino-4-[3-({[2-(trifluoromethyl)phenyl]amino}-carbonylamino)phenyl]thiopheno[2,3-d]pyrimidine-6-carboxamide] | 172 to 175 °C |  |  | 
2 | Cc1ccc(-c2nc(NC3CC3)nc3sc(C(N)=O)c(N)c23)cc1 [Example 265] |  | 20 to 30 µM | 20 to 30 µM | 0.1 to 10 µM
3 | NC(=O)c1sc2nc(N[C@H]3CCNC3)nc(-c3ccc(Cl)c(Cl)c3)c2c1N [Example 224] |  | 0.1 to 10 µM | 10 to 20 µM | 0.1 to 10 µM
4 | NC(=O)c1sc2nc(NC3CC3)nc(-c3ccc(Cl)cc3)c2c1N [Example 5] |  | 0.1 to 10 µM | 10 to 20 µM | 0.1 to 10 µM
5 | NC(=O)c1sc2nc(NC3CC3)nc(-c3ccc(C(F)(F)F)c(O)c3)c2c1N [Example 234] |  | 0.1 to 10 µM | 30 to 60 µM | 0.1 to 10 µM
6 | COCCCNc1nc(-c2ccc(Cl)c(Cl)c2)c2c(N)c(C(N)=O)sc2n1 [Example 222] |  | 20 to 30 µM | 20 to 30 µM | 0.1 to 10 µM
7 | NC(=O)c1sc2nc(NC3CC3)nc(-c3cc(O)ccc3F)c2c1N [Example 231] |  | 0.1 to 10 µM | 0.1 to 10 µM | 0.1 to 10 µM
8 | COc1ccc(F)c(-c2nc(NC3CC3)nc3sc(C(N)=O)c(N)c23)c1 [Example 230] |  | 10 to 20 µM | 20 to 30 µM | 0.1 to 10 µM
9 | NC(=O)c1sc2ncnc(-c3cccc(NC(=O)Cc4ccccc4)c3)c2c1N [Example 291] |  | 0.1 to 10 µM | 10 to 20 µM | 0.1 to 10 µM
10 | CC[C@H](CO)Nc1nc(-c2cc(O)cc(Cl)c2)c2c(N)c(C(N)=O)sc2n1 [Example 192] |  | 0.1 to 10 µM | 0.1 to 10 µM | 0.1 to 10 µM
11 | NC(=O)c1sc2nc(NC3CC3)nc(-c3ccc4c(c3)OCC4)c2c1N [Example 162] |  | 0.1 to 10 µM | 10 to 20 µM | 0.1 to 10 µM
12 | NC(=O)c1sc2nc(NCC(O)CO)nc(-c3ccc(Cl)c(Cl)c3)c2c1N (stereo not shown) [Example 220] |  | 10 to 20 µM | 20 to 30 µM | 0.1 to 10 µM
13 | NC(=O)c1sc2nc(N[C@H]3CCOC3)nc(-c3ccc(Cl)c(Cl)c3)c2c1N [Example 228] |  | 0.1 to 10 µM | 10 to 20 µM | 0.1 to 10 µM
14 | NC(=O)c1sc2nc(NC3CC3)nc(-c3cncc(Cl)c3)c2c1N [Example 171] |  | 0.1 to 10 µM | 20 to 30 µM | 0.1 to 10 µM
15 | CC[C@H](CO)Nc1nc(-c2ccc(Cl)c(Cl)c2)c2c(N)c(C(N)=O)sc2n1 [Example 208] |  | 0.1 to 10 µM | 10 to 20 µM | 0.1 to 10 µM
16 | NC(=O)c1sc2nc(NC3CC3)nc(-c3cccc(NC(=O)Nc4ccc(Cl)c(C(F)(F)F)c4)c3)c2c1N [Example 249] |  | 0.1 to 10 µM | 0.1 to 10 µM | 0.1 to 10 µM
17 | Cc1ccc(-c2nc(NC3CC3)nc3sc(C(N)=O)c(N)c23)cc1C [Example 188] |  | 0.1 to 10 µM | 10 to 20 µM | 0.1 to 10 µM
18 | NC(=O)c1sc2nc(NC3CC3)nc(-c3ccc(Cl)nc3)c2c1N [Example 169] |  | 0.1 to 10 µM | 20 to 30 µM | 0.1 to 10 µM
19 | CC(C)(CN)Nc1nc(-c2cccc(NC(=O)Nc3ccc(C(F)(F)F)cc3)c2)c2c(N)c(C(N)=O)sc2n1 [Example 282] |  | 10 to 20 µM | 10 to 20 µM | 0.1 to 10 µM

Row | Compound | melting point | IC50 (pMEK1/2 in A375 cells) | IC50 (A375 cells) | IC50 (V600E mutant B-RAF)
20 | CCCNc1nc(-c2ccc(Cl)c(Cl)c2)c2c(N)c(C(N)=O)sc2n1 [Example 217] |  | 10 to 20 µM | 0.1 to 10 µM | 0.1 to 10 µM
21 | NC(=O)c1sc2nc(N[C@@H]3CCNC3)nc(-c3ccc(Cl)c(Cl)c3)c2c1N [Example 225] |  | 0.1 to 10 µM | 0.1 to 10 µM | 0.1 to 10 µM
22 | NC(=O)c1sc2ncnc(-c3cccc(NC(=O)Nc4ccccc4C(F)(F)F)c3)c2c1N [Example 296] |  | 30 to 60 µM | 10 to 20 µM | 0.1 to 10 µM
23 | NC(=O)c1sc2nc(C3CC3)nc(-c3ccc(Cl)c(Cl)c3)c2c1N [Example 189] |  | 20 to 30 µM | 0.1 to 10 µM | 0.1 to 10 µM
24 | COCCNc1nc(-c2ccc(Cl)c(Cl)c2)c2c(N)c(C(N)=O)sc2n1 [Example 219] |  | > 60 µM | > 60 µM | 0.1 to 10 µM
25 | CC(C)[C@H](CO)Nc1nc(-c2ccc(Cl)c(Cl)c2)c2c(N)c(C(N)=O)sc2n1 [Example 273] |  | 0.1 to 10 µM | 10 to 20 µM | 0.1 to 10 µM
26 | C[C@@H](O)[C@@H](C)Oc1nc(-c2ccc(Cl)c(Cl)c2)c2c(N)c(C(N)=O)sc2n1 [Example 214] |  | 0.1 to 10 µM | 0.1 to 10 µM | 0.1 to 10 µM
27 | NC(=O)c1sc2ncnc(-c3cccc(NC(=O)Nc4ccncc4)c3)c2c1N [Example 292] |  | > 60 µM | 10 to 20 µM | 0.1 to 10 µM
28 | NC(=O)c1sc2nc(NC3CC3)nc(-c3cccc(NC(=O)Nc4ccc(F)cc4)c3)c2c1N [Example 252] |  | 0.1 to 10 µM | 0.1 to 10 µM | 0.1 to 10 µM
29 | C[C@@H](CO)Nc1nc(-c2cccc(NC(=O)Nc3ccc(C(F)(F)F)cc3)c2)c2c(N)c(C(N)=O)sc2n1 [Example 261] |  | 0.1 to 10 µM | 10 to 20 µM | 0.1 to 10 µM
30 | NC(=O)c1sc2nc(NC3CCNCC3)nc(-c3ccc(Cl)c(Cl)c3)c2c1N [Example 226] |  | 0.1 to 10 µM | 0.1 to 10 µM | 0.1 to 10 µM
31 | C[C@H](O)CNc1nc(-c2ccc(Cl)c(Cl)c2)c2c(N)c(C(N)=O)sc2n1 [Example 205] |  | 20 to 30 µM | 20 to 30 µM | 0.1 to 10 µM
32 | CC(C)(CN)CNc1nc(-c2ccc(Cl)c(Cl)c2)c2c(N)c(C(N)=O)sc2n1 [Example 253] |  | 0.1 to 10 µM | 0.1 to 10 µM | 0.1 to 10 µM
33 | NC(=O)c1sc2nc(NC3CC3)nc(-c3cccc(NCCc4ccccc4)c3)c2c1N [Example 247] |  | 0.1 to 10 µM | 0.1 to 10 µM | 0.1 to 10 µM
34 | CC[C@H](CO)Nc1nc(-c2cncc(OC)c2)c2c(N)c(C(N)=O)sc2n1 [Example 174] |  | 0.1 to 10 µM | 0.1 to 10 µM | 0.1 to 10 µM
35 | CC[C@@H](CO)Nc1nc(-c2cc(O)cc(Cl)c2)c2c(N)c(C(N)=O)sc2n1 [Example 191] |  | 0.1 to 10 µM | 0.1 to 10 µM | 0.1 to 10 µM
36 | CC(C)Cc1nc(-c2ccc(Cl)c(Cl)c2)c2c(N)c(C(N)=O)sc2n1 [Example 271] |  | 30 to 60 µM | 10 to 20 µM | 0.1 to 10 µM
37 | CC(C)(CN)Nc1nc(-c2ccc(Cl)c(Cl)c2)c2c(N)c(C(N)=O)sc2n1 [Example 256] |  | 0.1 to 10 µM | 0.1 to 10 µM | 0.1 to 10 µM

Reference: patent publication US20080004271A1, “Inhibitors of TNFalpha, PDE4 and B-RAF, compositions thereof and methods of use therewith” (priority 2006, published 2008)
